Measurements reported in patent publication US8207329B2, “Synthesis of chlorins and phorbines with enhanced red spectral features” (North Carolina State University, priority 2005, dated 2012).
“And” between values parts separate entries of the source, which are not always exact repeats. Equal entries are not always repeated. Where two headings read alike, the source gives them in different places.

Columns and labels:
[1] = Absorption spectra obtained in toluene at room temperature; assay type: physicochemical; details: for B/Qy intensity ratio / Log ε (M^−1cm^−1) (Qy band) / λmax (nm), B / λmax (nm), Qy: Table 1, in toluene at room temperature; for redshift of the Qy band: Example 1, versus benchmark chlorin lacking the 13-substituent (Zn-11 or 11), toluene; for Qy band: figure legends (FIG. 1, 2, 4, 5), toluene at room temperature, normalized at the B bands
Description: (§1) Absorption Spectra. The spectral properties of interest in the chlorins include the position of the long-wavelength Qy transition, the intensity of the Qy transition, and the fluorescence quantum yield of the chlorin. The intensity of the Qy transition can be assessed by the measured molar absorption coefficient; however, comparisons of such values are somewhat unreliable given the experimental variability encountered upon handling small quantities of materials. A better comparison is achieved by examination of the ratio of the intensities of the B and Qy bands for a given compound (B/Qy ratio), which is determined simply by absorption spectroscopy without requiring determination of the molar absorption coefficient. For a wide variety of applications, bathochromic and hyperchromic shifts of the Qy band are desired (i.e., shifted to longer wavelength and intensified), thereby affording strong absorption in the deep-red region.
General. ^1H NMR (400 MHz) and ^13C NMR (75 MHz) spectra were collected at room temperature in CDCl3. Absorption spectra were obtained in toluene at room temperature. Chlorins were analyzed by laser desorption mass spectrometry (LD-MS) in the absence of a matrix. Fast atom bombardment mass spectrometry (FAB-MS) data are reported for the molecule ion or protonated molecule ion. Melting points are uncorrected. All commercially available materials were used as received. All palladium-coupling reactions were carried out using standard Schlenk-line techniques.
as §1, with “B. Absorption” for “Absorption”, “Spectroscopy.” for “Spectra.”, “increased” for “intensified), thereby affording strong absorption”, “intensity).” for “the deep-red region.”
General. ^1H NMR (400 MHz) and ^13C NMR (75 MHz) spectra were collected at room temperature in CDCl3 unless noted otherwise. Absorption spectra were obtained in toluene at room temperature. Chlorins were analyzed by laser desorption mass spectrometry (LD-MS) in the absence of a matrix. Metalation of free base chlorins was monitored by fluorescence spectroscopy. Melting points are uncorrected. All commercially available materials were used as received.

[2] = Fluorescence spectra and fluorescence quantum yields in toluene at room temperature; assay type: physicochemical; details: for fluorescence quantum yield (Φf): standard Zn-11 (Φf=0.065)
Description: Fluorescence Spectroscopy. The fluorescence spectra and fluorescence quantum yields reported herein were collected in toluene at room temperature. Measurements of fluorescence quantum yield (Φf) were carried out using chlorin Zn-11 (Φf=0.065) as a standard (Strachan, J.-P. et al., J. Org. Chem. 2000, 65, 3160-3172).

[3] = comparison values, Strachan et al.; cited from earlier work

SMILES	B/Qy intensity ratio [1]	Log ε (M^−1cm^−1) (Qy band) [1]	λmax (nm), B [1] [nm]	λmax (nm), Qy [1] [nm]	strong / dominant Qy(0,0) fluorescence band [2]	weak emission feature / broad weak band [2]	fluorescence quantum yield (Φf) [2]	redshift of the Qy band [1] [nm]	Qy band [1] [nm]	fluorescence quantum yield (Φf) [3]
CC(=O)c1cc2[nH]c1cc1nc(cc3ccc([nH]3)c(-c3ccc(C)cc3)c3nc(c2-c2c(C)cc(C)cc2C)C=C3)C(C)(C)C1 [compound 8, 13-Acetyl-17,18-dihydro-10-mesityl-18,18-dimethyl-5-p-tolylporphyrin]	2.3	4.67	422	661	approximately 668 nm	~711 nm and ~744 nm	0.23	–	–	–
CC(=O)c1cc2[n]3c1=CC1=NC(=Cc4ccc([n]4[Zn]3)C(c3ccc(C)cc3)=C3C=CC(=N3)C=2c2c(C)cc(C)cc2C)C(C)(C)C1 [Zn-8, Zn(II)-13-Acetyl-17,18-dihydro-10-mesityl-18,18-dimethyl-5-p-tolylporphyrin]	2.9	4.75	424	635	around 641 nm	670-720 nm	0.24	27	632	–
Cc1ccc(-c2c3nc(c(-c4c(C)cc(C)cc4C)c4cc5c([nH]4)c(c4nc(cc6ccc2[nH]6)C(C)(C)C4)CC5=O)C=C3)cc1 [compound 10, 18,18-Dimethyl-10-mesityl-13^1-oxo-5-p-tolylphorbine]	2.5	–	417	660	–	–	–	19	660	0.29
